Laboratory results published in patent publication US8911953B2, “TDF-related compounds and analogs thereof, analogs and bioactive fragments” (Thrasos Innovation, Inc., priority 2005, dated 2014).
Positions of bridges follow the written chain, without caps; N, C: chain ends. No end group written: not given here.

Key:
[1] = tested on: vascular endothelial cells; assay: Smad 1, 5 phosphorylation in vascular endothelial cells (Western blot); assay type: cell-based; details: added to vascular endothelial cells in culture
Protocol: Phosphorylation and nuclear translocation of Smads occurs following the activation of Type I and Type II receptors and subsequent signal transduction to intracellular Smad targets. Phosphorylation and nuclear translocation of R-Smad in HK-2, vascular endothelial, human prostate or other cells by TDFRP compounds is assayed by immuno-fluorescent microscopy methods, using anti-phospho Smad 1/5 antibodies according to the procedure of H Aoki, M Fujii, T Imamura, K Yagi, K Takehara, M Kato and K Miyazono. J. of Cell Sci. 114, 1483-1489, 2001) and by Western blot analysis (FIGS. 2, 3, 18, 2X).
The detection of Smad phosphorylation by Western analysis, for example in LNCaP (prostate cancer cells) or EC (vascular endothelial cells) in culture medium can be examined after exposure to varying concentrations of TDFRP or control compounds. BMP-7 serves as a positive control. Cells are lysed in RIPA lysis buffer (50 mM Tris-HCl at pH 8.0, 150 mM NaCl, 1% NP-40, 0.5% sodium deoxycholate, 0.1% SDS) containing 1 mM PMSF, 1 mM sodium orthovanadate, and 10 ug/mL proteinase inhibitor cocktail. Lysates are incubated on ice for 15 minutes, centrifuged, and transferred supernatant to a clean tube. 50 to 100 ug is used for analysis by SDS-PAGE. Resolved proteins are electro transferred onto PVDF membrane. The blot is blocked by incubating in 3% non-fat dry milk prepared in PBS at room temperature for 1 hour with constant slow agitation. The blot is incubated with 1-2 ug/mL of primary antibody (rabbit anti-phospho-Smad 1) prepared in PBS-milk, overnight with agitation at 4 degree C., washed twice with PBS, and incubated with secondary antibody (anti rabbit HRP conjugated IgG, 1:3000 dilution) at room temperature for 2 hours with agitation. After washing in PBS-0.05% Tween 20 for 5 minutes and rinsing, Smad phosphorylation is detected via an HRP reaction according to manufacturer's instructions (FIGS. 2, 3, 18, 2X).
Phosphorylation and nuclear translocation of Smads occurs following the activation of Type I and Type II receptors and subsequent signal transduction to intracellular Smad targets. Phosphorylation and nuclear translocation of R-Smad in HK-2 cells by TDFRP compounds is assayed by immuno-fluorescent microscopy methods, using anti-phospho Smad 1/5 antibodies according to the procedure of H Aoki, M Fujii, T Imamura, K Yagi, K Takehara, M Kato and K Miyazono. J. of Cell Sci. 114, 1483-1489, 2001) and by Western blot analysis in various cell types (FIGS. 2, 3, 18, 27).
For detection of Smad phosphorylation by Western analysis, LNCaP (prostate cancer cells) or EC (vascular endothelial cells) in culture medium are exposed to varying concentrations of TDFRP or control compounds. BMP-7 served as a positive control. Cells are lysed in RIPA lysis buffer (50 mM Tris-HCl at pH 8.0, 150 mM NaCl, 1% NP-40, 0.5% sodium deoxycholate, 0.1% SDS) containing 1 mM PMSF, 1 mM sodium orthovanadate, and 10 ug/mL proteinase inhibitor cocktail. Lysates are incubated on ice for 15 minutes, centrifuged, and transferred supernatant to a clean tube. 50 to 100 ug is used for analysis by
SDS-PAGE. Resolved proteins are electro transferred onto PVDF membrane. The blot is blocked by incubating in 3% non-fat dry milk prepared in PBS at room temperature for 1 hour with constant slow agitation. The blot is incubated with 1-2 ug/mL of primary antibody (rabbit anti-phospho-Smad 1) prepared in PBS-milk, overnight with agitation at 4 degree C., washed twice with PBS, and incubated with secondary antibody (anti rabbit HRP conjugated IgG, 1:3000 dilution) at room temperature for 2 hours with agitation. After washing in PBS-0.05% Tween 20 for 5 minutes and rinsing, Smad phosphorylation is detected via an HRP reaction according to manufacturer's instructions (FIGS. 3, 27).

LNCaP = assay: Cancer cell proliferation, tritiated thymidine incorporation; assay type: cell-based, human; details: LNCaP cultured in vitro
Excerpt: (§1) TDFRP Compound Inhibition of LNCaP Cancer Cell Proliferation. BMP-6 and a TDFRP compound (SEQ ID NO:45) inhibited the proliferation of prostate cancer cells (LNCaP and PC-3) cultured in vitro as detected by the incorporation of tritiated thymidine (a measure of cell proliferation.
(§2) Prostate cancer is one of the most common cancers in men. […] Moreover, it has been shown that BMP signals inhibit the growth and the proliferation of human prostate tumor cells by upregulating the cyclin-dependent kinase inhibitor (CDKI) p21 (CIP1/WAF1) and decreasing the activity of Cdk2, leading to hypophosphorylation of Rb proteins. TDFRP compounds have been screened in in vitro prostate and bladder cancer bioassays to assess growth inhibitory activity of the compounds (FIG. 3). ^3H-thymidine incorporation is used as a marker for cell proliferation activity in human prostate and bladder cancer cell lines. Cisplatin inhibits ^3H-thymidine incorporation, indicating a tumor-growth suppressive activity of cisplatin in both human prostate and bladder cancer cells. TDFRP compounds are assayed in these cancer cells for the ability to induce receptor-regulated Smad 1/5 phosphorylation in a dose-dependent manner (FIG.).
as §2, with “(FIGS. 3, 28).” for “(FIG. 3).”, “(FIGS. 3, 28).” for “(FIG.).”

PC-3 = assay: as above; assay type: cell-based, human; details: PC-3 cultured in vitro
Excerpt: as §1, §2
as §2, with “(FIGS. 3, 28).” for “(FIG. 3).”, “(FIGS. 3, 28).” for “(FIG.).”

Sequence: CYFDDSSNVLCKKYRS (disulfide 1-11 (inferred); not fully specified) [SEQ ID NO:45]
- phosphorylation and activation of intracellular Smad 1, 5 [1]: phosphorylation and activation of intracellular Smad 1, 5
- proliferation (incorporation of tritiated thymidine) (LNCaP): inhibited
- proliferation (incorporation of tritiated thymidine) (PC-3): inhibited
